These results are taken from patent US20140018350A1, “COMBINATION OF SULFONAMIDE COMPOUND AND TAFLUPROST” (priority 2012, published 2014).

This test is described as follows: Intraocular pressure lowering effect in monkeys with normal intraocular pressure after instillation. Particulars: male cynomolgus monkeys with normal intraocular pressure, six per group, 20 μL instillation into one eye, 0.0006 w/v % present compound solution and/or Taflotan 0.0015%. Type of test: in vivo, Cynomolgus monkey. The text has this: In order to study the usefulness of a combination of the present compound with tafluprost, an intraocular pressure lowering effect when the present compound and tafluprost were concomitantly administered to experimental animals (monkeys with normal intraocular pressure) was examined.
An intraocular pressure lowering effect when the present compound and tafluprost were concomitantly administered was examined. As comparison subjects, intraocular pressure lowering effects when the present compound or tafluprost was administered singly were also examined. As a control, the base and physiological saline were administered.
Present compound solution: a 0.0006 w/v % present compound solution (instillation amount: 20 μL) […]
(2) Intraocular pressure was measured immediately before administering the test compound solution, and the measured intraocular pressure was defined as initial intraocular pressure. […]
(4) At 2, 4, 6 and 8 hours after instilling the present compound solution, one drop of the 0.4% oxybuprocaine hydrochloride eye drop was instilled into the eyes for which intraocular pressure was to be measured to effect local anesthesia, and then, intraocular pressure was measured. The intraocular pressure was measured in triplicate for each eye to obtain an average of three measurements, which is shown as the result. […]

Turning to `CC(C)OC(=O)CCC/C=C\C[C@@H]1[C@@H](/C=C/C(F)(F)COc2ccccc2)[C@H](O)C[C@@H]1O` [tafluprost, 1-methylethyl (5Z)-7-{(1R,2R,3R,5S)-2-[(1E)-3,3-difluoro-4-phenoxy-1-butenyl]-3,5-dihydroxycyclopentyl}-5-heptenoate], the “Intraocular pressure lowering degree (change relative to average of control group) at 6 hours after instillation” value was 1.9 mmHg.
As for `CC(C)OC(=O)CNc1cccc(CN(Cc2ccc(-n3cccn3)cc2)S(=O)(=O)c2cccnc2)n1` [Present compound, isopropyl(6-{[4-(pyrazol-1-yl)benzyl](pyridin-3-ylsulfonyl)aminomethyl}pyridin-2-ylamino)acetate], the “Intraocular pressure lowering degree (change relative to average of control group) at 6 hours after instillation” value is reported as 2.6 mmHg.
